According to US5753631A, “Intercellular adhesion mediators” (Cytel Corporation, priority 1995, dated 1998):

How the values were obtained:
ELAM-1 [1] = biological target: T1, ELAM-1 (Homo sapiens, UniProt P16581); assay: Liposome inhibition of neutrophil (PMN) adhesion to IL-1 activated endothelium (HUVEC); assay type: cell-based; settings: for inhibition of neutrophil adhesion to activated endothelium: E-Selectin dependent binding assay, liposomes
T1 construct: adhesion of neutrophils (PMN)
T1 sequence (P16581 22-610): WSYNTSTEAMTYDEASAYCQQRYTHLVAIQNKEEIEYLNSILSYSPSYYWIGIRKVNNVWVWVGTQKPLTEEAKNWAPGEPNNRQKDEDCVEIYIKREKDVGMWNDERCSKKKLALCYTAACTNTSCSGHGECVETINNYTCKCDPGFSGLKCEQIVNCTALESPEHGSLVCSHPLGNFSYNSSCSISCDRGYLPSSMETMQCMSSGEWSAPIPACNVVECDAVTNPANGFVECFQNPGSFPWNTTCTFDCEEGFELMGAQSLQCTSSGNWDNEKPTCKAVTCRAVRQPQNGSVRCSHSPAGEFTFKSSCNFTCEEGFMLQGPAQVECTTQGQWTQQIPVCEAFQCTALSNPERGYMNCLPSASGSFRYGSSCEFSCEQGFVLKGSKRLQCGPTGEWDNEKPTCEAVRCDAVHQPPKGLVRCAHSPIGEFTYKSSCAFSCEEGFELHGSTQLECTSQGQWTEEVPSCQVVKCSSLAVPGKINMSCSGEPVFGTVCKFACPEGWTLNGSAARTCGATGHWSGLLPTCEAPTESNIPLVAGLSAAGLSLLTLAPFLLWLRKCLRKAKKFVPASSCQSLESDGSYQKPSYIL
Experimental: Two synthetic compounds were prepared. One comprised sialic acid in an α2,3 linkage, as in naturally occurring SLe^x. The second comprised sialic acid in an α2,6 linkage, to examine the importance of the nature of the linkage to receptor binding.
Liposomes were prepared by adding 12 μl of absolute ethanol (ETOH) to each tube, warming briefly in a 50° C. water bath and sonicating for 2 min. 238 μl of warm phosphate buffered saline (PBS) was added slowly to each tube while sonicating and sonication was continued for a further 10 min. The final concentration of stock liposomes was 400 μg glycolipids/ml in 5% ETOH/PBS.
1. HUVECs, PMNs, and liposomes were prepared as described above.
2. The stimulated HUVEC assay plate was removed from the incubator and the wells were washed two times with RPMI 1640 containing 5 mg/ml bovine serum albumin (BSA).
3. Liposomes stocks were diluted in the HBSS/BSA buffer to make solutions equal to: 40 μg/ml, 30 μg/ml, 15 μg/ml, 7.5 μg/ml, 3.75 μg/ml and 1.87 μg/ml. Similar dilutions were prepared from a control stock consisting of PBS-5% ETOH.
4. The medium was removed from the wells of the assay plate with a pasteur pipette, a few wells at a time.
5. 0.05 ml of each liposome suspension was added to duplicate wells on the stimulated assay plate. Control wells received the liposome buffer containing ethanol HBSS and BSA at the same concentrations as in the liposome containing wells. Control buffer was plated on unstimulated and stimulated HUVEC. Liposome containing samples were added to stimulated wells only.
6. The plates were incubated for 40 min at 37° C. and then 50 μl of PMNs were added to the assay wells. The final concentration of cells was 5×10^5 well in 100 μl.
7. The assay plate was returned to the incubator (5% CO2, 37° C.) for 8 min.
8. Unbound cells were removed from the wells of the assay plates by systematic resuspension using a P200 multichannel pipette followed by addition and removal of 0.2 ml of medium.
9. All of the medium was removed from the wells and 50 μl of solubilization buffer was added. This consisted of citrate buffer (24.3 ml of 0.1M Citric acid, 10.5 g/500 ml+25.7 ml of 0.2M dibasic sodium phosphate, 14.2 g/500 ml and SQ H2 O to 100 ml) containing 0.1% NP-40 detergent.
10. The plate was incubated on a rotary shaker for 10 min and then 0.05 ml of OPDA solution [8 mg o-phenylene-diamine, Sigma cat# P-1526, 8 μl of 30% H2 O2 and 10 ml of citrate buffer (as above)] was added to each well. The reaction was allowed to develop for 15 min and then 25 μl of 4N H2 SO4 was added to each well to stop the reaction.
11. A reagent bulk was prepared by mixing 100 μl volumes of the solubilization buffer and the OPDA solution with 50 μl of 4N H2 SO4.
12. 100 μl of supernatant was removed from each of 2 wells and transferred to a flexible ELISA assay plate (Falcon). The plate was scanned spectrophotometrically at 492 nm within 30 min.

ELAM-1 [2] = biological target: T1, ELAM-1; assay: as above; assay type: cell-based; settings: 0.47 μg/ml; Control +IL-1β 0.782
selectin receptors = settings: Berg et al.; cited from earlier work
[3] = 1.87 μg/ml, Control +IL-1β 0.725
[4] = 3.75 μg/ml, Control +IL-1β 0.698
[5] = 7.5 μg/ml, Control +IL-1β 0.658

| Mean absorbance at 492 nm (bound neutrophils) (ELAM-1 [1]; [3]) | Mean absorbance at 492 nm (bound neutrophils) (ELAM-1 [1]; [4]) | Mean absorbance at 492 nm (bound neutrophils) (ELAM-1 [1]; [5]) | Mean absorbance at 492 nm (bound neutrophils) (ELAM-1 [1]; 15 μg/ml, Control +IL-1β 0.740) | Mean absorbance at 492 nm (bound neutrophils) (ELAM-1 [1]; 20 μg/ml, Control +IL-1β 0.657) | Mean absorbance at 492 nm (bound neutrophils) (ELAM-1 [2]) | Compound | inhibition of neutrophil adhesion to activated endothelium (ELAM-1 [1]) | recognition by selectin receptors (selectin receptors) |
| --- | --- | --- | --- | --- | --- | --- | --- | --- |
| 0.580 | 0.483 | 0.359 | 0.270 | 0.156 | 0.642 | NeuAcα2,3Galβ1,4(Fucα1,3) GlcNAcβ1,3Galβ1,4Glcβ1,1Ceramide [(2,3) SLe^x] | inhibit neutrophil adhesion to activated endothelium |  |
| 0.690 | 0.655 | 0.602 | 0.636 | 0.663 | 0.695 | NeuAcα2,6Galβ1,4(fucα1,3)GlcNacβ1,3Galβ1,4Glcβ1,1Ceramide [(2,6) SLe^x, reference compound] | not |  |
|  |  |  |  |  |  | CC(=O)N[C@H]1[C@H]([C@H](O)[C@H](O)CO)O[C@@](O[C@H]2[C@@H](O)[C@@H](CO)O[C@@H](O[C@H]3[C@H](O[C@@H]4O[C@@H](C)[C@@H](O)[C@@H](O)[C@@H]4O)[C@@H](CO)OC(O)[C@@H]3NC(C)=O)[C@@H]2O)(C(=O)O)C[C@@H]1O (stereo partly drawn) [SLe^a, NeuAcα2,3Galβ1,3(Fucα1,4)GlcNAcβ1--] |  | recognized by selectin receptors |
